pEC50, pIC50: −log10 of the molar value. Converted amounts (≈) assume the structure as drawn.

The source of these data is ChEMBL document CHEMBL5620368, “Molecular-level strategic goals and repressors in Leishmaniasis - Integrated data to accelerate target-based heterocyclic scaffolds” (Eur J Med Chem, 2023).

Test [1] concerns Leishmania donovani. Briefly: Antileishmanial activity against Leishmania donovani Ag83 amastigotes infected in BALB/c mouse macrophage assessed as cell viability incubated for 48 hrs by PI staining based analysis. The format is functional, organism-based. The settings on record: Ag83, 48 h.
Test [2] deals with Leishmania amazonensis. Briefly: Antileishmanial activity against Leishmania amazonensis promastigotes assessed as reduction in parasite growth after 72 hrs by CCK-8 assay. The class given is functional, organism-based. (In general: Formazan colour is commonly taken as a measure of viable cells.)
The test system of test [3] is Leishmania donovani. Briefly: Antileishmanial activity against Leishmania donovani promastigotes infected in golden hamster assessed as reduction in parasite load in spleen at 3 mg/kg administered twice per week for 4 weeks relative to control. The class given is functional. More on the design: scale not given: the % may be the effect or the level left.
For a further test, the target named is Arginase (Leishmania amazonensis, UniProt O96394). Briefly: Inhibition of Leishmania amazonensis Arginase.
Test [4] concerns Leishmania infantum. Briefly: Inhibition of Leishmania infantum promastigotes Arginase expressed in Escherichia coli BL21 (DE3) at 100 uM by enzymatic assay relative to control.
For test [5], the system named is Leishmania infantum. Briefly: Inhibition of Leishmania infantum Arginase expressed in Escherichia coli BL21 (DE3) at 100 uM by enzymatic assay relative to control.
For test [6], the system named is Leishmania donovani. Briefly: Antileishmanial activity against Leishmania donovani MHOM/IN/83/AG83 promastigotes infected in BALB/c mouse assessed as reduction of parasite burden in spleen at 20 mg/kg per day relative to control. The format is functional. The arrangement: scale not given: the % may be the effect or the level left.
The test system of test [7] is Leishmania infantum. Briefly: Antileishmanial activity against Leishmania infantum MCAN/ES/ 89/IPZ229/1/89 promastigote assessed as reduction in parasite viability incubated for 24 hrs by PI staining based flow cytometry. The class given is functional, organism-based. The settings on record: MCAN/ES/ 89/IPZ229/1/89, 24 h.
Test [8] deals with Leishmania infantum. Briefly: Antileishmanial activity against Leishmania infantum MCAN/ES/ 89/IPZ229/1/89 axenic amastigotes assessed as reduction in parasite viability treated for 24 hrs by PI staining based flow cytometry. The settings on record: MCAN/ES/ 89/IPZ229/1/89, 24 h. The class given is functional, organism-based. In general terms: Flow cytometry measures light scatter and fluorescence of single cells or particles in a stream.

Test [9] is described as follows: Inhibition of Leishmania infantum Trypanothione reductase.
For test [10], the system named is Leishmania infantum. Briefly: Antileishmanial activity against Leishmania infantum infected in BALB/c mouse assessed as reduction of parasite burden in spleen at 2.5 mg/kg for 15 days relative to control. The class given is functional. More on the design: scale not given: the % may be the effect or the level left. The settings on record: time 15 day.
A further test deals with T1, DNA topoisomerase I (Leishmania donovani (strain BPK282A1), UniProt E9BRC0).
T1 sequence (E9BRC0 whole entry): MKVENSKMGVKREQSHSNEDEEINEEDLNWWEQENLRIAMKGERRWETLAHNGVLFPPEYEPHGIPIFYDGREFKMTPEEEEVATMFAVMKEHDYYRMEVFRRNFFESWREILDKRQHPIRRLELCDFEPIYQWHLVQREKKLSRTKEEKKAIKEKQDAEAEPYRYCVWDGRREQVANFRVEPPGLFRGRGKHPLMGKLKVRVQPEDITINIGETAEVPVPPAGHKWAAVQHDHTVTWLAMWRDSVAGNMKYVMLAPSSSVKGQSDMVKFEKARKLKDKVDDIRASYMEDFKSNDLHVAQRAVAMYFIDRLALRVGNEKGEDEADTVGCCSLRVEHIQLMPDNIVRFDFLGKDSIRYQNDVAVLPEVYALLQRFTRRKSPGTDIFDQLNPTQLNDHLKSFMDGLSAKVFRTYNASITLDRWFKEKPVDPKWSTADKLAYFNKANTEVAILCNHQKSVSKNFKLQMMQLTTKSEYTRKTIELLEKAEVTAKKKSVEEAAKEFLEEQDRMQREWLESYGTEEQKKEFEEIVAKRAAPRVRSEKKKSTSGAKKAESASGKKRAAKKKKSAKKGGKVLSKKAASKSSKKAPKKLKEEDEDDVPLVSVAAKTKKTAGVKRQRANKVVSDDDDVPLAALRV
Briefly: Inhibition of Leishmania donovani DNA topoisomerase I.

A further test has as its system Leishmania mexicana. Briefly: Antileishmanial activity against Leishmania mexicana promastigotes MHOM/B2/62/BEL21 assessed as reduction in parasite growth by tryphan blue staining based analysis. The class given is functional, organism-based.
Test [11] concerns Leishmania amazonensis. Briefly: Antiprotozoal activity against Leishmania amazonensis axenic amastigotes assessed as growth inhibition measured after 5 days by MTT assay. The class given is functional, organism-based. The settings on record: 120 h.
The nature of test [12]: Inhibition of recombinant rat liver arginase.
Test [13] relates to Leishmania infantum. Briefly: Antileishmanial activity against GFP-expressing Leishmania infantum intracellular amastigotes infected in human THP-1 derived macrophage cells assessed as reduction in parasite viability measured for 72 hrs by resazurin/alamar blue fluorometric assay. The class given is functional, organism-based. The settings on record: THP-1, 72 h. Background: Resazurin is reduced to fluorescent resorufin, in cell work by metabolically active cells.

In test [14] the test system is Leishmania donovani. Briefly: Antileishmanial activity against Leishmania donovani promastigotes assessed as parasite growth inhibition incubated for 72 hrs by Alamar blue staining based analysis. The format is functional, organism-based.
Test [15] deals with Leishmania amazonensis. Briefly: Antileishmanial activity against Leishmania amazonensis intracellular amastigotes assessed as parasite growth inhibition. The format is functional, organism-based.
Test [16] has as its system Leishmania donovani. Briefly: Antileishmanial activity against Leishmania donovani intracellular amastigotes assessed as parasite growth inhibition. The class given is functional, organism-based.

For `C/C=C1/CN(C)[C@H]2Cc3c([nH]c4ccccc34)[C@H](c3cc4[nH]c5c(c4cc3OC)CCN3C[C@@H]4C[C@H](CC)[C@H]3[C@@]5(C(=O)OC)C4)C[C@@H]1C2C(=O)OC` (some centres not stated), the pEC50 (as a rule, the EC50 on a negative log10 scale, so that one unit is a factor of ten) in the test with Leishmania donovani [1] is 5.77.

As to `O=c1cc(-c2ccc(O)c(O)c2)oc2c(C3OC(CO)[C@@H](O)[C@@H](O)[C@@H]3O)c(O)cc(O)c12` (some centres not stated), the pIC50 (usually the negative decadic logarithm of the IC50, by convention in mol/L) in the test on Leishmania amazonensis [2] is 4.80.

`O=C(Nc1ccc(F)c(-c2ccn3c(N4CCOCC4)cnc3n2)c1)N1CCCC1` [GSK-3494245]: the Activity in the test on Leishmania donovani [3] is listed as 95%.

Molecule `O=c1cc(-c2ccc(O)c(O)c2)oc2cc(O)cc(O)c12` [LUTEOLIN] showed a pIC50 against Arginase of 5.05.

`Cc1cc2c(c(=O)[nH]1)C(=O)O/C2=C/c1ccccc1`: in the test on Leishmania donovani [1], the pEC50 is 6.00.

On to `O=C(/C=C/c1ccc(F)cc1)c1ccccc1Cl`, for which the inhibition (commonly the drop in the measured response relative to a control, in per cent) in the test with Leishmania infantum [4] is 74.1%; in the test on Leishmania infantum [5], 72.3%.

On to `COC[C@@H](Cc1ccc(OC)c(OC)c1)[C@@H](COC)Cc1cc(OC)c2c(c1)OCO2`, for which the negative logarithm of the EC50 (pEC50) in the test with Leishmania donovani [1] is 5.90.

Consider `CC(C)CN(C[C@@H](O)[C@H](Cc1ccccc1)NC(=O)O[C@H]1CCOC1)S(=O)(=O)c1ccc(N)cc1` [AMPRENAVIR], for which the Activity in the test on Leishmania donovani [6] was 98%.

As to `NCCNCc1nccn1-c1ccc(-c2nc(CCc3ccccc3-c3ccccc3)cs2)c(OCCN2CCNC2=O)c1`, the pEC50 in the test with Leishmania infantum [7] and with Leishmania infantum [8] was 5.28 each time. This molecule gave a pIC50 in test [9] of 5.07.

`O=c1c(O)c(-c2ccc(O)c(O)c2)oc2cc(O)cc(O)c12` [QUERCETIN] gave a pIC50 against Arginase of 5.37.

As for `O=C1c2ccccc2-c2c1c1ccc([N+](=O)[O-])cc1c(=O)n2CCCN1CCOCC1`, the Activity in the test with Leishmania infantum [10] was 80%.

`COc1cc2c3c(c1)Oc1c(OC)c(OC)c(OC)c4c1C(Cc1ccc(cc1)Oc1cc(ccc1OC)C[C@H]3N(C)CC2)N(C)CC4` (some centres not stated) had a pIC50 against DNA topoisomerase I of 4.30.

On to `O=c1cc(-c2ccccc2)oc2c(O)c(O)ccc12` [7,8-DIHYDROXYFLAVONE], for which the negative-log IC50 (pIC50) against Arginase was 4.92.

As to `CCCCCCCCCCCCCCCCOP(=O)([O-])OCC[N+](C)(C)C` [MILTEFOSINE], in the test with Leishmania mexicana, the 50% inhibitory concentration (IC50) (as a rule, the concentration that gives 50% inhibition) was determined as 2.18 µg/mL (≈ 5.35 µM).

Consider `O=c1c(O)c(-c2ccc(O)c(O)c2)oc2cc(O)ccc12` [FISETIN], for which the pIC50 against Arginase was 5.85.

Take `COc1c(O)ccc2c1c[n+](C)c1c3cc4c(cc3ccc21)OCO4`: in the test with Leishmania amazonensis [11], the pIC50 was 6.27.

In the case of `CC(=O)Oc1ccc(OC(C)=O)c2cc3c(cc12)CCCC3(C)C`, the pIC50 against DNA topoisomerase I is under 4.00.

For `O=C(O)c1cc(O)c(O)c(O)c1` [GALLIC ACID], the negative logarithm of the IC50 (pIC50) in test [12] was 5.42.

In the case of `O=C(Cc1cccc2ccccc12)Nc1ccc([Se][Se]c2ccc(NC(=O)c3cccc4ccccc34)cc2)cc1`, the pEC50 in the test with Leishmania infantum [13] is 6.30.

The molecule `CCCCCCCCCCCCCCCC#CC(=O)O` showed a negative-log IC50 (pIC50) at DNA topoisomerase I of 5.28.

With `Cc1ccc2c(c1)C1c3ccccc3CC1C(c1ccccn1)N2` (configuration not stated), in the test with Leishmania mexicana, the half-inhibitory concentration (IC50) was determined as 1 µg/mL (≈ 3.2 µM).

As to `Oc1cc(O)c2c(c1)O[C@@H](c1ccc(O)c(O)c1)[C@H](O)C2` [(-)-CATECHIN], the negative logarithm of the IC50 (pIC50) in test [12] is 6.11.

Consider `COc1cc(C)cc2c1C(=O)C1OC1(c1c(C)cc3c(c1OC)C(=O)C1OC1C3=O)C2=O` (configuration not stated), for which the pIC50 with Leishmania donovani [14] was 4.68; with Leishmania amazonensis [15] it was 6.74; with Leishmania donovani [16] it was 4.68.

As to `COc1ccc([C@@H]2Cc3cc(OC)c(O)cc3[C@H](CO)[C@@H]2COC2OCC(O)[C@@H](O)[C@H]2O)cc1O` (some centres not stated), in the test with Leishmania donovani [1], the negative-log EC50 (pEC50) is 5.74.

Consider `NCCNCc1nccn1-c1ccc(-c2nc(CCc3cccc4ccccc34)cs2)c(OCCN2CCNC2=O)c1`, for which the pEC50 with Leishmania infantum [7] and with Leishmania infantum [8] was 4.89 each time. Also, in [9], the negative logarithm of the IC50 (pIC50) was 5.29.
